From the supplement of paper PMC10307832

Columns and labels:
Experiment in all cases: relative viability (nuclei count vs DMSO), 5 days (fraction); higher = more cells survive
A-427 = tested on: A-427
How it was run: (§1)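 Relative viability is defined as nuclei in treated wells over nuclei in vehicle wells. Duplicate plates were run and medians reported. Lung cancer cell lines in 1536-well plates were dosed by pin tool one day after seeding, with one drug or with a fixed anchor-drug dose plus five library-drug doses (not always all listed) in √10 steps, and nuclei were counted after 5 days.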

H3255 = tested on: H3255
How it was run: as §1

HARA = tested on: HARA
How it was run: as §1

HCC-15 = tested on: HCC-15
How it was run: as §1

HCC-366 = tested on: HCC-366
How it was run: as §1

LXF-289 = tested on: LXF-289
How it was run: as §1

NCI-H1437 = tested on: NCI-H1437
How it was run: as §1

NCI-H1755 = tested on: NCI-H1755
How it was run: as §1

NCI-H1793 = tested on: NCI-H1793
How it was run: as §1

NCI-H1915 = tested on: NCI-H1915
How it was run: as §1

NCI-H1975 = tested on: NCI-H1975
How it was run: as §1

NCI-H2009 = tested on: NCI-H2009
How it was run: as §1

NCI-H2023 = tested on: NCI-H2023
How it was run: as §1

NCI-H2405 = tested on: NCI-H2405
How it was run: as §1

NCI-H3122 = tested on: NCI-H3122
How it was run: as §1

NCI-H441 = tested on: NCI-H441
How it was run: as §1

NCI-H460 = tested on: NCI-H460
How it was run: as §1

NCI-H596 = tested on: NCI-H596
How it was run: as §1

NCI-H650 = tested on: NCI-H650
How it was run: as §1

PC-14 = tested on: PC-14
How it was run: as §1

PC-3 [JPC-3] = tested on: PC-3 [JPC-3]
How it was run: as §1

SK-LU-1 = tested on: SK-LU-1
How it was run: as §1

UMC-11 = tested on: UMC-11
How it was run: as §1

Cc1cnc(-c2cnc(NCCNc3ccc(C#N)cn3)nc2-c2ccc(Cl)cc2Cl)[nH]1 + CS(=O)(=O)N1CCN(Cc2cc3nc(-c4cccc5[nH]ncc45)nc(N4CCOCC4)c3s2)CC1 [Pictilisib] (partner 1 µM)
relative viability (A-427; first compound 0.08 µM): 0.758 | relative viability (A-427; first compound 0.253 µM): 0.705 | relative viability (A-427; first compound 0.8 µM): 0.696 | relative viability (A-427; first compound 2.53 µM): 0.619 | relative viability (H3255; first compound 0.08 µM): 0.554 | relative viability (H3255; first compound 0.253 µM): 0.463 | relative viability (H3255; first compound 0.8 µM): 0.469 | relative viability (H3255; first compound 2.53 µM): 0.476 | relative viability (HARA; first compound 0.08 µM): 0.398 | relative viability (HARA; first compound 0.253 µM): 0.414 | relative viability (HARA; first compound 0.8 µM): 0.433 | relative viability (HARA; first compound 2.53 µM): 0.454 | relative viability (HCC-15; first compound 0.08 µM): 0.681 | relative viability (HCC-15; first compound 0.253 µM): 0.669 | relative viability (HCC-15; first compound 0.8 µM): 0.746 | relative viability (HCC-15; first compound 2.53 µM): 0.739 | relative viability (HCC-366; first compound 0.08 µM): 0.148 | relative viability (HCC-366; first compound 0.253 µM): 0.128 | relative viability (HCC-366; first compound 0.8 µM): 0.119 | relative viability (HCC-366; first compound 2.53 µM): 0.132 | relative viability (LXF-289; first compound 0.08 µM): 0.841 | relative viability (LXF-289; first compound 0.253 µM): 0.745 | relative viability (LXF-289; first compound 0.8 µM): 0.845 | relative viability (LXF-289; first compound 2.53 µM): 0.877 | relative viability (NCI-H1437; first compound 0.08 µM): 0.521 | relative viability (NCI-H1437; first compound 0.253 µM): 0.399 | relative viability (NCI-H1437; first compound 0.8 µM): 0.483 | relative viability (NCI-H1437; first compound 2.53 µM): 0.379 | relative viability (NCI-H1755; first compound 0.08 µM): 0.507 | relative viability (NCI-H1755; first compound 0.253 µM): 0.411 | relative viability (NCI-H1755; first compound 0.8 µM): 0.386 | relative viability (NCI-H1755; first compound 2.53 µM): 0.559 | relative viability (NCI-H1793; first compound 0.08 µM): 0.315 | relative viability (NCI-H1793; first compound 0.253 µM): 0.351 | relative viability (NCI-H1793; first compound 0.8 µM): 0.412 | relative viability (NCI-H1793; first compound 2.53 µM): 0.596 | relative viability (NCI-H1915; first compound 0.08 µM): 0.958 | relative viability (NCI-H1915; first compound 0.8 µM): 0.939 | relative viability (NCI-H1915; first compound 2.53 µM): 1.01 | relative viability (NCI-H1975; first compound 0.08 µM): 0.328 | relative viability (NCI-H1975; first compound 0.253 µM): 0.297 | relative viability (NCI-H1975; first compound 0.8 µM): 0.299 | relative viability (NCI-H1975; first compound 2.53 µM): 0.338 | relative viability (NCI-H2009; first compound 0.08 µM): 0.877 | relative viability (NCI-H2009; first compound 0.253 µM): 0.81 | relative viability (NCI-H2009; first compound 0.8 µM): 0.814 | relative viability (NCI-H2009; first compound 2.53 µM): 0.732 | relative viability (NCI-H2023; first compound 0.08 µM): 0.334 | relative viability (NCI-H2023; first compound 0.253 µM): 0.271 | relative viability (NCI-H2023; first compound 0.8 µM): 0.307 | relative viability (NCI-H2023; first compound 2.53 µM): 0.813 | relative viability (NCI-H2405; first compound 0.08 µM): 0.472 | relative viability (NCI-H2405; first compound 0.253 µM): 0.485 | relative viability (NCI-H2405; first compound 0.8 µM): 0.422 | relative viability (NCI-H2405; first compound 2.53 µM): 0.412 | relative viability (NCI-H3122; first compound 0.08 µM): 0.65 | relative viability (NCI-H3122; first compound 0.253 µM): 0.64 | relative viability (NCI-H3122; first compound 0.8 µM): 0.646 | relative viability (NCI-H3122; first compound 2.53 µM): 0.763 | relative viability (NCI-H441; first compound 0.08 µM): 0.486 | relative viability (NCI-H441; first compound 0.253 µM): 0.376 | relative viability (NCI-H441; first compound 0.8 µM): 0.428 | relative viability (NCI-H441; first compound 2.53 µM): 0.553 | relative viability (NCI-H460; first compound 0.08 µM): 0.243 | relative viability (NCI-H460; first compound 0.253 µM): 0.378 | relative viability (NCI-H460; first compound 0.8 µM): 0.318 | relative viability (NCI-H460; first compound 2.53 µM): 0.504 | relative viability (NCI-H596; first compound 0.08 µM): 0.424 | relative viability (NCI-H596; first compound 0.253 µM): 0.397 | relative viability (NCI-H596; first compound 0.8 µM): 0.391 | relative viability (NCI-H596; first compound 2.53 µM): 0.435 | relative viability (NCI-H650; first compound 0.08 µM): 0.936 | relative viability (NCI-H650; first compound 0.253 µM): 1.03 | relative viability (NCI-H650; first compound 0.8 µM): 0.916 | relative viability (NCI-H650; first compound 2.53 µM): 0.873 | relative viability (PC-14; first compound 0.08 µM): 0.662 | relative viability (PC-14; first compound 0.253 µM): 0.775 | relative viability (PC-14; first compound 0.8 µM): 0.55 | relative viability (PC-14; first compound 2.53 µM): 0.645 | relative viability (PC-3 [JPC-3]; first compound 0.08 µM): 0.772 | relative viability (PC-3 [JPC-3]; first compound 0.253 µM): 0.666 | relative viability (PC-3 [JPC-3]; first compound 0.8 µM): 0.798 | relative viability (PC-3 [JPC-3]; first compound 2.53 µM): 0.79 | relative viability (SK-LU-1; first compound 0.08 µM): 0.701 | relative viability (SK-LU-1; first compound 0.253 µM): 0.604 | relative viability (SK-LU-1; first compound 0.8 µM): 0.623 | relative viability (SK-LU-1; first compound 2.53 µM): 0.754 | relative viability (UMC-11; first compound 0.08 µM): 0.871 | relative viability (UMC-11; first compound 0.253 µM): 0.777 | relative viability (UMC-11; first compound 0.8 µM): 0.496 | relative viability (UMC-11; first compound 2.53 µM): 0.859
